Earlier results on 59 molecules are cited in publication PMC6376154 (International Journal for Parasitology: Drugs and Drug …, 2019).

Read-outs that look alike come from different tables or passages of the source.

For this data set, the system named is P. falciparum 3D7 asexual blood stage. As to conditions: cited from earlier work.
[1] abbreviates: MMV Malaria Box data sheet (supplement mmc2.xls), ref MMV data sheet.
Setting [2] is: value(s) per source (GSK, GNF, StJude), separated by semicolon, ref ChEMBL-NTD, read-out: CHEMBL EC50.
Setting [3] is: MMV Malaria Box sheet, ref MMV data sheets.
[4] abbreviates: source GSK, ref ChEMBL_NTD, read-out: CHEMBL EC50.
[5] abbreviates: MMV Malaria Box data sheet (supplement mmc2.xls), ref MMV data sheet, read-out: EC50_nM.
The mark [6] stands for this setting: MMV Malaria Box data sheet, ref MMV data sheets.
Setting [7] is: MMV Malaria Box data sheet, ref MMV data sheets, read-out: EC50_nM.
Where [8] appears, read: ChEMBL-NTD value per source (GNF, GSK, StJude), several values in a cell follow the order of the sources, read-out: CHEMBL EC50.
[9] abbreviates: MMV Malaria Box sheet, ref MMV data sheets, read-out: EC50_nM.
The mark [10] stands for this setting: source GNF, ref ChEMBL_NTD, read-out: CHEMBL EC50.

On to `COc1ccc(C(=O)Nc2ccc3nc(N4CCCCC4)cc(C)c3c2)cc1OC` [MMV019758], for which the “percent_inh @ 5 uM” value under setting [1] is recorded as 76%. The EC50 under setting [2] was 994 nM. Turning to `COc1cccc(C(=O)Nc2ccc(-c3nc4ccccc4[nH]3)cc2)c1` [MMV019762], under setting [3], the “percent_inh @ 5 uM” value is 83%. Further, the EC50 under setting [4] was 802 nM.

Turning to `Cc1cc(C)c2nc(N3CCC(C(=O)NCCCN4CCC(N5CCCCC5)CC4)CC3)sc2c1` [MMV019780], under setting [1], the “percent_inh @ 5 uM” value was 98%. The EC50 was 697 nM under setting [5] and 838 nM under setting [2]. On to `Fc1ccc2[nH]c3c(NCCCN4CCOCC4)ncnc3c2c1` [MMV019871], for which the “percent_inh @ 5 uM” value under setting [6] is 98%. For the same molecule, the EC50 under setting [7] was 345 nM and the EC50 under setting [4] was 714 nM.

On to `O=C(NC1CCN(Cc2ccccc2)CC1)c1cc(C(=O)NC2CCN(Cc3ccccc3)CC2)cc(C(=O)NC2CCN(Cc3ccccc3)CC2)c1` [MMV019881], for which, under setting [8], the EC50 was 1040 nM. On to `Clc1cc(Br)ccc1-c1ccc(CNCC2CCNCC2)o1` [MMV019918], for which, under setting [1], the “percent_inh @ 5 uM” value is given as 96%. For the same molecule, the EC50 is, setting by setting: under setting [5], 800 nM; under setting [2], 1510 nM.

For `O=C(NCCCN1CCC(N2CCCCC2)CC1)C1=Cc2cc(Br)ccc2OC1` [MMV019995], the “percent_inh @ 5 uM” value under setting [3] is 99%. Moreover, the EC50 is, setting by setting: under setting [9], 563 nM; under setting [4], 853 nM.

As to `Cc1cc(N(C)C)nc(Nc2ccc(NC(=O)Nc3ccccc3)cc2)n1` [MMV020243], the EC50 under setting [8] is 134 nM. `O=C(NC1CCN(Cc2ccccc2)CC1)c1cc(-c2ccncc2)nc2ccc(Cl)cc12` [MMV020275]: the “percent_inh @ 5 uM” value under setting [1] is recorded as 92%. Moreover, the EC50 reads like this: under setting [5], 1020 nM; under setting [2], 920 nM. In the case of `COc1ccc(-c2cn3c(C(=O)Nc4ccccc4Cl)c(-c4ccccc4)c4c3n2CCCC4)cc1` [MMV020403], the EC50 under setting [8] is 792 nM.

As for `CCn1c(CN2CCN(Cc3ccccc3)CC2)nc2cc(NC(=O)c3cccs3)ccc21` [MMV020439], the “percent_inh @ 5 uM” value under setting [6] is on record as 97%. Moreover, the EC50 is, setting by setting: under setting [7], 512 nM; under setting [4], 402 nM. As to `O=C(NC1CCN(Cc2ccccc2)CC1)c1cc(-c2cccnc2)nc2ccc(Cl)cc12` [MMV020490], under setting [3], the “percent_inh @ 5 uM” value is listed as 91%. In addition, the EC50 reads like this: under setting [9], 1010 nM; under setting [4], 759 nM.

For the molecule `CC1CN(C(=O)c2sc3ccccc3c2Cl)CC(C)O1` (stereo not drawn) [MMV020492], under setting [6], the “percent_inh @ 5 uM” value is on record as 95%. Further, the EC50 runs as follows: under setting [7], 25.5 nM; under setting [4], 87.9 nM.

For `CNCCCNc1ccnc2cc(Cl)ccc12` [MMV020500], the “percent_inh @ 5 uM” value under setting [6] was 98%. The EC50 is 82.2 nM under setting [7] and 62.4 nM under setting [4]. Turning to `CN(C)CCCNCc1ccc(-c2ccc(F)c(Cl)c2)o1` [MMV020505], under setting [3], the “percent_inh @ 5 uM” value was 96%. Moreover, the EC50 under setting [9] was 876 nM and the EC50 under setting [4] is 802 nM.

With `CCN1CCN(Cc2ccc(NC(=O)c3cc4ccc5cccnc5c4[nH]3)cc2)CC1` [MMV020548], the “percent_inh @ 5 uM” value under setting [6] is 70%. Moreover, the EC50 is, setting by setting: under setting [7], 361 nM; under setting [4], 848 nM. For the molecule `CC1CCN(Cc2ccc(NC(=O)c3cc4ccc5cccnc5c4[nH]3)cc2)CC1` [MMV020549], the “percent_inh @ 5 uM” value under setting [6] is listed as 97%. Moreover, the EC50 runs as follows: under setting [7], 274 nM; under setting [4], 779 nM.

In the case of `O=C(Nc1ccc(CN2CCOCC2)cc1)c1ccc(-c2cc(Cl)ccc2Cl)o1` [MMV020651], the “percent_inh @ 5 uM” value under setting [3] is recorded as 97%. For the same molecule, the EC50 is 1940 nM under setting [9] and 613 nM under setting [4]. With `CCC(O)c1ccc(Br)cc1NC(=O)c1cccc(Cl)c1` (stereo not drawn) [MMV020654], under setting [1], the “percent_inh @ 5 uM” value is on record as 97%. Also, the EC50 under setting [5] is 640 nM and the EC50 under setting [2] is 1020 nM. Consider `CC(=O)Nc1nnc(SCc2c(C)cc(C(C)(C)C)cc2C)s1` [MMV020700], for which the “percent_inh @ 5 uM” value under setting [1] is recorded as 96%. Besides, the EC50 reads like this: under setting [5], 871 nM; under setting [2], 704 nM. As for `COc1cc(-c2nc(-c3ccccc3)c(-c3ccccc3)[nH]2)cc(OC)c1O` [MMV020750], the EC50 under setting [8] was 774 nM. As for `Oc1ccccc1CNCC12CC3CC(CC(C3)C1)C2` [MMV020788], the “percent_inh @ 5 uM” value under setting [6] is 96%. Also, the EC50 under setting [7] was 22.6 nM and the EC50 under setting [4] was 279 nM.

As to `COc1ccc(Br)cc1C1Nc2ccc3ccccc3c2C2=C1C(=O)CC(c1ccccc1)C2` (stereo not drawn) [MMV020885], the “percent_inh @ 5 uM” value under setting [6] is 95%. The EC50 is 180 nM under setting [7] and 590 nM under setting [4].

For the molecule `Cc1ccc(-c2nc3ccccc3o2)cc1NCc1cc(Cc2ccccc2)ccc1O` [MMV020912], under setting [8], the EC50 is 1030 nM. As for `CCC(=O)Nc1nnc(Cc2ccc(OC)c(OC)c2)s1` [MMV020942], the “percent_inh @ 5 uM” value under setting [3] is reported as 47%. Also, the EC50 under setting [4] was 910 nM. For `COc1cc(SC)ccc1C(=O)N1CCCC(C)C1` (stereo not drawn) [MMV056726], the “percent_inh @ 2 uM” value (2 uM, MMV Malaria Box data sheet (supplement mmc2.xls), ref MMV data sheet) is 45%. For the same molecule, the EC50 was 4000 nM under setting [5] and 9810 nM under setting [2]. In the case of `CN(C)c1ccc(N=Cc2ccc(N3CCOCC3)cc2)cc1` [MMV073843], under setting [8], the EC50 is 175 nM. For `CCOc1ccc(C2N(C)c3ccccc3N2C)cc1` [MMV075490], the “percent_inh @ 5 uM” value under setting [1] is on record as 72%. Further, under setting [5], the EC50 was 941 nM. Turning to `COc1cc2c(cc1OC)C1=NNC(=O)C1=NC(C)(C)C2` [MMV084940], the EC50 was 1040 nM under setting [9] and 1580 nM under setting [10]. For the molecule `COc1ccccc1N=C1C(=O)c2ccccc2C(O)=C1N1CCCCC1` [MMV085203], under setting [6], the “percent_inh @ 5 uM” value was 98%. The EC50 is, setting by setting: under setting [7], 5.3 nM; under setting [10], 28 nM. Take `CCOc1ccc(-n2cc(-c3ccccc3)c3c(SCc4cc(C)ccc4C)ncnc32)cc1` [MMV085471]: under setting [3], the “percent_inh @ 5 uM” value is 97%. Moreover, the EC50 by setting is: under setting [9], 1700 nM; under setting [10], 2010 nM.

For `CCCCCC(=O)N1c2ccccc2N=C2CC(c3ccc(OC)c(OC)c3)CC(O)=C2C1c1ccc(C(F)(F)F)cc1` (stereo not drawn) [MMV085583], the “percent_inh @ 5 uM” value under setting [6] is listed as 100%. Also, the EC50 is, setting by setting: under setting [7], 237 nM; under setting [10], 107 nM. In the case of `Cc1ccc(C(=O)c2oc3ccc4c(C)cc(=O)oc4c3c2C)cc1` [MMV086103], the EC50 under setting [8] is 1030 nM. For `COc1cc(CNCCc2ccc(Cl)cc2)cc(OC)c1O` [MMV128432], the EC50 under setting [8] was 6890 nM. Consider `CC(C)(C)c1ccc(C(=O)Nc2nc3ccccc3s2)cc1` [MMV142383], for which, under setting [1], the “percent_inh @ 5 uM” value is 81%. Further, the EC50 under setting [2] was 15000 nM. Take `COc1ccc2nc(C)cc(Nc3ccccc3O)c2c1` [MMV274073]: the EC50 under setting [5] was 686 nM. `CCn1nc(-c2ccc(C(=O)OC)cc2)nc2c(=O)n(C)c(=O)nc1-2` [MMV306025]: the EC50 under setting [5] is 693 nM. `CCOc1ccccc1CN1CCc2nc3cc(C(C)(C)C)nn3c(O)c2C1` [MMV396595]: the EC50 under setting [9] was 1010 nM. In the case of `CCOc1c(Cl)cc(CNCC(O)c2ccccc2)cc1OC` (stereo not drawn) [MMV396632], the EC50 under setting [9] is 1050 nM. For the molecule `CCOc1cc(CNC(C)C(O)c2ccccc2)cc(Cl)c1OCC` (stereo not drawn) [MMV396633], the EC50 under setting [5] is 1240 nM. `Cc1cc(N2CCCC2)nc(Nc2ccc(NC(=O)CCc3ccccc3)cc2)n1` [MMV396669]: the EC50 under setting [9] was 1070 nM. For the molecule `O=C(NCC(c1ccsc1)N1CCCCCC1)c1ccc(C(F)(F)F)cc1` (stereo not drawn) [MMV396672], the EC50 under setting [7] is 433 nM. As to `O=C(CSc1nccn2nc(-c3ccccc3)cc12)Nc1cc(C(F)(F)F)ccc1Cl` [MMV396678], the EC50 under setting [7] is 218 nM.

For `COc1ccc(-c2cc3c(SCC(=O)Nc4cc(C(F)(F)F)ccc4Cl)nccn3n2)cc1` [MMV396679], under setting [7], the EC50 was 89.9 nM. For the molecule `Cc1ccc(-c2cc3c(SCC(=O)Nc4cc(C(F)(F)F)ccc4Cl)nccn3n2)cc1` [MMV396680], under setting [7], the EC50 was 92.8 nM. For `Cc1cc(NC(=O)c2cccc(C(F)(F)F)c2)n(-c2nc(-c3ccc4c(c3)OCO4)cs2)n1` [MMV396681], the EC50 under setting [5] is 959 nM. Turning to `C[n+]1c2ccccc2nc2ccc(NCCO)cc21` [MMV396693], the EC50 under setting [7] is 296 nM. For the molecule `CCN(CC)CCNc1ncnc2c1[nH]c1ccc(Cl)cc12` [MMV396703], the EC50 under setting [7] is 406 nM. `CN1CCN(c2ncnc3c2[nH]c2ccc(Cl)cc23)CC1` [MMV396704]: under setting [9], the EC50 was 1190 nM.

`COc1cccc(Cn2c(Oc3ccccc3)nc3c2c(=O)n(C)c(=O)n3C)c1` [MMV396705]: the EC50 under setting [9] is 1390 nM. With `CC1(c2ccccc2)Nc2ccccc2-c2nc3ccccc3n21` (stereo not drawn) [MMV396715], the EC50 under setting [9] is 1730 nM. As to `COc1cccc(C2(C)Nc3ccccc3-c3nc4ccccc4n32)c1` (stereo not drawn) [MMV396719], the EC50 under setting [5] was 1150 nM. Take `OC(CNCC1CCCO1)Cn1c2ccc(Cl)cc2c2cc(Cl)ccc21` (stereo not drawn) [MMV396736]: the EC50 under setting [5] is 1060 nM. Regarding `CC(C)CNC(=O)c1c(N)n(CCc2ccccc2F)c2nc3ccccc3nc12` [MMV396744], the EC50 under setting [5] was 832 nM.

In the case of `COc1ccc2c(c1)C1(Nc3ccccc3-c3nc4ccccc4n31)C(=O)N2` (stereo not drawn) [MMV396749], under setting [9], the EC50 is 928 nM. Take `CC(C)(C)CC(C)(C)NCC(O)COc1ccc(Cl)cc1Cl` (stereo not drawn) [MMV396794]: under setting [5], the EC50 is 1160 nM.

Turning to `COc1ccc(-c2c(C)nn3c(N)c(C#N)cnc23)cc1OC` [MMV396797], the EC50 under setting [7] was 477 nM.

`Cc1cccc(-n2ncc3c(=O)[nH]c(-n4nc(C)cc4NC(=O)c4cc5ccccc5o4)nc32)c1` [MMV403679]: under setting [5], the EC50 was 929 nM.

With `CCN(CC)CCCNc1ccnc2cc3ccccc3cc12` [MMV665783], the “percent_inh @ 5 uM” value under setting [3] is on record as 90%. Also, under setting [10], the EC50 is 33.8 nM.
